Experimental data from patent publication US20070099958A1, “Protease inhibitors” (ProZymex A/S, priority 2003, published 2007).

Tests used:
[1] = target: T1, CYP2D6 (Homo sapiens, UniProt P10635); test: CYP2D6 assay (Vivid CYP2D6 Cyan Screening Kit); format: in vitro ADME; settings: read-out: Metabolism: CYP enzymes (20 μM cutoff or IC50) CYP2D6
T1 construct: purchased PanVera
Protocol: (§1) Following the procedure for CYP1A2, using the appropriate kits below, the effect of a compound of the invention on the other CYP enzymes was determined:
Vivid® CYP2D6 Cyan Screening Kit from PanVera.

[2] = target: T2, Human DPP-I (Homo sapiens, UniProt P53634); test: Human dipeptidyl peptidase I (DPP-I) assay; format: biochemical; settings: Gly-Phe-AFC substrate, pH 6.0, 37° C.; read-out: Primary enzymatic screening (IC50) DPP-I
T2 construct: purchased UniZyme A/S
T2 sequence (P53634 231-394 limits assumed): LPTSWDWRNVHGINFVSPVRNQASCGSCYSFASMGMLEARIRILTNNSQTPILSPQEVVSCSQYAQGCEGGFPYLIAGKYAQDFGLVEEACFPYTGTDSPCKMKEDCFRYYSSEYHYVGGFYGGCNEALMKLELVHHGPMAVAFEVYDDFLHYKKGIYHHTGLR
T2 sequence (P53634 395-463 limits assumed): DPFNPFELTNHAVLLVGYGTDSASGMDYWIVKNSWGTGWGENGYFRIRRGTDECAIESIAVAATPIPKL
T2 sequence (P53634 25-143 limits assumed): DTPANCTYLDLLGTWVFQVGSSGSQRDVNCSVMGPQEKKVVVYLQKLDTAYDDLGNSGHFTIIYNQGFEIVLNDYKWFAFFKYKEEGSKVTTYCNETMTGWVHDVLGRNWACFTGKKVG
Protocol: Human dipeptidyl Peptidase I (DPP-I) Assay
Using this assay, the IC50 value of a compound of the invention as a DPP-I inhibitor was determined using an AFC substrate.
100 mM sodium phosphate (8.9 g Na2HPO4; M=177.99), 150 mM KCl (5.6 g KCl; M=74.6) and 1.5 mM EDTA (279 mg EDTA; M=372.2) was dissolved in 500 mL H2O, and pH was adjusted to 6.0. Cysteine*HCl (Sigma C-1276; M=157.6), 1 mg/mL assay buffer, corresponding to 6 mM, was added to the solution for activation of the DPP-1 enzyme.
Gly-Phe-AFC*TFA (Enzyme Systems Products AFC-033) was used as the substrate for determination of IC50 values. Km was 270 μM. The substrate was solubilized in DMSO to give a 7.5 mM stock solution (2.2 mg of substrate was added to 0.5 mL DMSO).
Human DPP-I (hDDP-I; obtained from UniZyme A/S, DK-2970Hørsholm, Denmark) was stored at −20° C. in a buffer containing 2.5 mM Na-phosphate, 150 mM NaCl, 2 mM cysteamine, 50% glycerol, pH 7.0 at a concentration of 2.5 mg/mL. This stock solution was diluted 200 times in the assay buffer.
The assay was performed in 96-well plates. […] The excitation wavelength was 400 nm, and the emission was measured at 505 nm for 10 minutes at 37° C. […] In the software (SOFTmax Pro) used for data collection from the fluorometer (Molecular Devices: Gemini XS), it was ensured that the measured slopes were linear (R^2>0.99). […]

[3] = target: T3, CYP3A4 (Homo sapiens, UniProt P08684); test: CYP3A4 assay (Vivid CYP3A4 Red Screening Kit); format: in vitro ADME; settings: read-out: Metabolism: CYP enzymes (20 μM cutoff or IC50) CYP3A4
T3 construct: purchased PanVera
T3 sequence (P08684 2-503 limits assumed): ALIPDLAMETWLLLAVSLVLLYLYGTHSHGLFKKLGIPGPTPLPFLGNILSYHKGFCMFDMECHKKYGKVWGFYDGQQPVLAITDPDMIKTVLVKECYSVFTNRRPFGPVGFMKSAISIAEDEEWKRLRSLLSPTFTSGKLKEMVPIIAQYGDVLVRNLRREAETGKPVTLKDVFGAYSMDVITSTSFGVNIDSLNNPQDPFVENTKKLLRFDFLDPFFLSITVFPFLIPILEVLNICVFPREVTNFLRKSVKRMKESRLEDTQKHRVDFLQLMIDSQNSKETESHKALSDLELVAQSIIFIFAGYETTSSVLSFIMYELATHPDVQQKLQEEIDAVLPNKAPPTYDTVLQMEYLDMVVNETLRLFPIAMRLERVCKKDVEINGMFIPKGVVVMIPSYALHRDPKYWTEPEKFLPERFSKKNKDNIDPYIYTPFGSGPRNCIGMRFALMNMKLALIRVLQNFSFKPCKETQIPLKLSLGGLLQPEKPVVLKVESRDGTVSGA
Protocol: as §1
Vivid® CYP3A4 Red Screening Kit from PanVera.

T1 sequence (P10635 whole entry): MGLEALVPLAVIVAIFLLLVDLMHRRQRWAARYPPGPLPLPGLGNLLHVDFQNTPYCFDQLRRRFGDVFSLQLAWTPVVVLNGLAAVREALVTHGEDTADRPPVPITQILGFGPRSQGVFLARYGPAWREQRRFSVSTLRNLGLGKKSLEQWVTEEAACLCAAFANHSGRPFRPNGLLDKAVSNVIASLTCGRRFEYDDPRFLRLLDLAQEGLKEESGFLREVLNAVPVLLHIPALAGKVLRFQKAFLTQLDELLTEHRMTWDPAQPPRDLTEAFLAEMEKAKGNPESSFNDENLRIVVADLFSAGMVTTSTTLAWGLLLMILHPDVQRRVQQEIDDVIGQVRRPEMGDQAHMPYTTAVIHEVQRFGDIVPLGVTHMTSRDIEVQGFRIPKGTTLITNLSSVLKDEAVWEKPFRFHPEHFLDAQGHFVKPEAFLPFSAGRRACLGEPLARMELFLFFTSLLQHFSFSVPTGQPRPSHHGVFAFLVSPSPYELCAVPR

CC[C@H](N)C(=O)N[C@H](C#N)Cc1ccc(-c2ccccc2)cc1 [Example 5, (2S)—N-[(2S)-2-aminobutanoyl]-2-amino-3-(1,1′-biphenyl-4-yl)propionitrile]
IC50 [1]: 12.6 ± 0.677 µM | IC50 [2]: 0.013 ± 0.003 µM | IC50 [3]: 3.6 ± 3.41 µM
